Values of other authors in publication PMC4754331, “Programming of metabolic effects in C57BL/6JxFVB mice by in utero and lactational exposure to perfluorooctanoic acid” (Archives of Toxicology, 2015).
Read-outs that look alike come from different tables or passages of the source.

System: mice (CD-1, NMRI, Balb/c, C57BL/6)
Parameters: key to Time of effect: P: permanent effect on body weight throughout study; D: delayed (late onset) of effect; T: transient effect; E: effect observed during treatment
Conditions: cited from earlier work
[1] = Balb/c, C57BL/6, 2500 (Balb), 7500 (BL6) µg/kg bw/d, oral gavage PND21-49 (5d/w), ref Zhao et al. ([2012])
[2] = CD-1, 5000 µg/kg bw/d, oral gavage GD1-17, GD8-17, GD12-17, ref White et al. ([2007])
[3] = CD-1, 10-100-1000 µg/kg bw/d, oral gavage GD10-17, ref Macon et al. ([2011])
[4] = CD-1, 10-100-1000 µg/kg bw/d, oral gavage PND18-20, ref Dixon et al. ([2012])
[5] = CD-1, 10–5000 µg/kg bw/d, oral gavage GD1-17, ref Hines et al. ([2009])
[6] = CD-1, 300-1000-3000 µg/kg bw/d, oral gavage GD1-17, ref Macon et al. ([2011])
[7] = CD-1, 1000, 3000, 5000, 10,000, 20,000, 40,000 µg/kg bw/d, oral gavage GD1-17, ref Lau et al. ([2006])
[8] = CD-1, 1000, 5000, 0/1000 + 5 ng/mL via drinking water, GD1-17, ref White et al. ([2011b])
[9] = CD-1, 1000–40,000 µg/kg bw/d, oral gavage GD1-17, ref Lau et al. ([2006])
[10] = CD-1, 3000, 5000 µg/kg bw/d, oral gavage GD1-17, ref White et al. ([2009])
[11] = CD-1, dose 3 [sic], 5 µg/kg bw/d, oral gavage GD1-17, ref Wolf et al. ([2007])
[12] = NMRI, 580-8,700 µg/kg bw/d, oral gavage PND10, ref Johansson et al. ([2008])

O=C(O)C(F)(F)C(F)(F)C(F)(F)C(F)(F)C(F)(F)C(F)(F)C(F)(F)F [PFOA, Perfluorooctanoic acid]
Endpoint bw (age) F [1]: ↓ PND42-49 (BL6)
Other relevant effects of PFOA [1]: delayed/absent vaginal opening; lack of estrous cycling; ↓ovarian steroid hormonal synthetic enzyme levels
Time of effect [1]: E
Other relevant effects of PFOA (C57BL/6/Bkl, 300 µg/kg bw/d, diet GD1-PND0, ref Onishchenko et al. ([2011])): M + F: changes in exploratory behavior; M: ↑ activity
Other relevant effects of PFOA (C57BL/6, 5000 µg/kg bw/d, oral gavage PND21-49 (5d/w), ref Zhao et al. ([2010])): ↑ serum progesterone; ↑ mammary gland response to estrogen and/or progesterone
Time of effect (CD-1, 5000 µg/kg bw/d, oral gavage GD1-17, GD8-17, GD12-17, no follow-up of animals, ref White et al. ([2007])): P^c
Endpoint bw (age) F [2]: ↓ PND1-20
Endpoint bw (age) M [2]: ↓ PND1-20
Other relevant effects of PFOA [2]: altered mammary gland development in dams + female pups
Endpoint bw (age) F [3]: – PND1-21
Endpoint bw (age) M [3]: – PND1-21
Other relevant effects of PFOA [3]: M + F: hepatomegaly; F: mammary gland developmental abnormalities
Endpoint bw (age) F [4]: – PND21
Other relevant effects of PFOA [4]: PND21: ↑ abs/rel uterine weight (lowest dose)
Endpoint bw (age) F (CD-1, 10, 100, 300, 1000, 3000, 5000 µg/kg bw/d, oral gavage GD1-17, ref Hines et al. ([2009])): ↓ PND1,21 (high doses); ↑ 20-40w (low doses)
Other relevant effects of PFOA [5]: 21–33w: ↑ insulin; ↑ leptin (low doses); 18 m, weights abs/rel: ↓ abdominal white fat (high doses); ↑ interscapular fat (high doses); – liver
Time of effect [5]: D T
Endpoint bw (age) F [6]: – PND7-85
Endpoint bw (age) M [6]: – PND7-85
Other relevant effects of PFOA [6]: M + F: delayed mammary gland development
Endpoint bw (age) F [7]: ↓ PND1-25; – 6.5w-60w
Endpoint bw (age) M [7]: ↓ PND1-25; – 6.5w-60w
Other relevant effects of PFOA [8]: delay in mammary gland development and/or lactational differentiation (P0, F1, F2)
Time of effect [8]: T
Endpoint bw (age) F (CD-1, 1000, 5000, 0/1000 + 5 ng/mL via drinking water, oral gavage GD1-17, GD1-end of study (5 ng/mL groups), ref White et al. ([2011b])): ↓ PND42 (F1); ↑ PND14-22 (F2)
Other relevant effects of PFOA [9]: M: earlier preputial separation
Time of effect [9]: T
Endpoint bw (age) F [10]: ↓ PND21-85
Other relevant effects of PFOA [10]: weaning age: abnormal (delay) mammary gland development; ↑ rel liver weight
Time of effect [10]: T
Endpoint bw (age) M (CD-1, 3000, 5000 µg/kg bw/d, oral gavage GD1-17, ref Wolf et al. ([2007])): ↓ PND1-22; ↑ PND85 - 35w (dose 3000)
Endpoint bw (age) F [11]: ↓ PND1-22
Other relevant effects of PFOA [11]: M + F, PND22: ↑ abs/rel liver weight
Time of effect [11]: T; D (dose 3000)
Endpoint bw (age) M [12]: – PND10 + 28
Other relevant effects of PFOA [12]: 8/16w: neurotoxicity
Most sensitive developmental BMDL (ref Lau et al. [2006]): 616 µg/kg bw/d
